Common to all, as to format: cell-based
The target in assay [1] is T1, adenosine A2a receptor (Homo sapiens, UniProt P29274).
T1 construct: expressed in transfected cells; host or cells: CHO (Chinese Hamster Ovary)
Briefly: Indirect determination of adenosine agonism by way of gene expression (luciferase, CHO cells), A2a. The following applies: CHO cells stably transfected with A2a receptor cDNA; 50% of maximum luciferase stimulation. The source says:
(§1) B-1. Indirect Determination of the Adenosine Agonism by Way of Gene Expression
(§2) Cells of the CHO (Chinese Hamster Ovary) permanent cell line are transfected stably with the cDNA for the adenosine receptor subtypes A1, A2a and A2b. The adenosine A1 receptors are coupled to the adenylate cyclase by way of Gi proteins, while the adenosine A2a and A2b receptors are coupled by way of Gs proteins. In correspondence with this, the formation of cAMP in the cell is inhibited or stimulated, respectively. After that, expression of the luciferase is modulated by way of a cAMP-dependent promoter. The luciferase test is optimized, with the aim of high sensitivity and reproducibility, low variance and good suitability for implementation on a robot system, by varying several test parameters, such as cell density, duration of the growth phase and the test incubation, forskolin concentration and medium composition. The following test protocol is used for pharmacologically characterizing cells and for the robot-assisted substance screening:
(§3) The stock cultures are grown, at 37° C. and under 5% CO2, in DMEM/F12 medium containing 10% FCS (foetal calf serum) and in each case split 1:10 after 2-3 days. The test cultures are seeded in 384-well plates with 2000 cells per well and grown at 37° C. for approx. 48 hours. The medium is then replaced with a physiological sodium chloride solution (130 mM sodium chloride, 5 mM potassium chloride, 2 mM calcium chloride, 20 mM HEPES, 1 mM magnesium chloride hexahydrate, 5 mM sodium bicarbonate, pH 7.4). The substances to be tested, which are dissolved in DMSO, are pipetted into the test cultures (maximum final concentration of DMSO in the test mixture: 0.5%) in a dilution series of from 5×10^−11M to 3×10^−6M (final concentration). 10 minutes later, forskolin is added to the A1 cells and all the cultures are subsequently incubated at 37° C. for four hours. After that, 35 μl of a solution which is composed of 50% lysis reagent (30 mM disodium hydrogenphosphate, 10% glycerol, 3% TritonX100, 25 mM TrisHCl, 2 mM dithiotreitol (DTT), pH 7.8) and 50% luciferase substrate solution (2.5 mM ATP, 0.5 mM luciferin, 0.1 mM coenzyme A, 10 mM tricine, 1.35 mM magnesium sulphate, 15 mM DTT, pH 7.8) are added to the test cultures, which are shaken for approx. 1 minute and the luciferase activity is measured using a camera system. The EC50 values are determined, i.e., the concentrations at which 50% of the luciferase answer is inhibited in the case of the A1 cell, and, respectively, 50% of the maximum stimulation with the corresponding substance is achieved in the case of the A2b and A2a cells. […] Pharmacol., 357 (1998), 1-9).
(§4) Table 18 below lists the EC50 values of representative working examples for the receptor stimulation on adenosine A1, A2a and A2b receptor subtypes: […]

In assay [2] the target is T2, adenosine A1 receptor (Homo sapiens, UniProt P30542).
T2 construct: expressed in transfected cells; host or cells: CHO (Chinese Hamster Ovary)
T2 sequence (P30542 1-326): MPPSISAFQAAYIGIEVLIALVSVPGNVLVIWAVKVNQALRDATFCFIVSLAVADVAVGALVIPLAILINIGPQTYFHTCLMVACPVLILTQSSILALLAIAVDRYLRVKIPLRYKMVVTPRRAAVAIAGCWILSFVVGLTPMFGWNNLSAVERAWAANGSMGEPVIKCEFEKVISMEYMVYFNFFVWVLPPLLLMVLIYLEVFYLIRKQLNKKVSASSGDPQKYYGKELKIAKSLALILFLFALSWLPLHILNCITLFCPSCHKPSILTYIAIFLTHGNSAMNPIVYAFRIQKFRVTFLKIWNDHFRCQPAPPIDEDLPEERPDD
Kind of assay: Indirect determination of adenosine agonism by way of gene expression (luciferase, CHO cells), A1. The following applies: CHO cells stably transfected with A1 receptor cDNA; 1 μM forskolin; 50% inhibition of luciferase answer.
Text: as §1, §2, §3, §4

In assay [3] the target is T3, adenosine A2b receptor (Homo sapiens, UniProt P29275).
T3 construct: expressed in transfected cells; host or cells: CHO (Chinese Hamster Ovary)
T3 sequence (P29275 1-332): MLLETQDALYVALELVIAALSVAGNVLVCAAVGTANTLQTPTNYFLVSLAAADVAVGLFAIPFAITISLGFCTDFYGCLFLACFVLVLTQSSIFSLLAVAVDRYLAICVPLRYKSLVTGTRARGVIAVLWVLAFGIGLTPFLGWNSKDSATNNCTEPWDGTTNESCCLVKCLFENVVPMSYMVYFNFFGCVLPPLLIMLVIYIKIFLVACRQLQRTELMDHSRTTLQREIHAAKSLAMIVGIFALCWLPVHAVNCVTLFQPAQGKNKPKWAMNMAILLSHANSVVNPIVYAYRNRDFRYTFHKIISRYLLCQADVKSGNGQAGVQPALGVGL
Briefly: Indirect determination of adenosine agonism by way of gene expression (luciferase, CHO cells), A2b. As to conditions: CHO cells stably transfected with A2b receptor cDNA; 50% of maximum luciferase stimulation.
Text: as §1, §2, §3, §4

For 26 compounds, EC50 results are on record in patent publication US8440700B2, “Substituted aryloxazoles and their use” (Bayer Intellectual Property GmbH, priority 2007, dated 2013).

Broadly, the EC50 is the midpoint of the concentration-response curve.

T1 sequence (P29274 whole entry): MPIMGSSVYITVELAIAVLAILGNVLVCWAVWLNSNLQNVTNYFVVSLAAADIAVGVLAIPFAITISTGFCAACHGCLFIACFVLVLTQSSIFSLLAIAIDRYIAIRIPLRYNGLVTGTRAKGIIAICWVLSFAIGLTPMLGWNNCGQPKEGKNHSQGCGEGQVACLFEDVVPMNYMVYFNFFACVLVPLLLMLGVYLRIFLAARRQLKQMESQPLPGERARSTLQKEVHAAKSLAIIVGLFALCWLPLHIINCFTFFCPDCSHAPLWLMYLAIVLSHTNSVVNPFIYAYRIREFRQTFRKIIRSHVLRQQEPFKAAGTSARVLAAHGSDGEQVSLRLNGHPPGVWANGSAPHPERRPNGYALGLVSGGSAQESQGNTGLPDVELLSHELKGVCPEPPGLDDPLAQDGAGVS

With `N#Cc1c(N)nc(SCc2coc(-c3ccc(F)c(Cl)c3)n2)c(C#N)c1-c1ccc(OCCO)cc1` [Example 10], the half-maximal effective concentration (EC50) in assay [1] was 1130 nM; in assay [2], 0.5 nM; in assay [3], 922 nM.
Take `N#Cc1c(N)nc(SCc2coc(-c3ccc(F)c(F)c3)n2)c(C#N)c1-c1ccc(OCCO)cc1` [Example 11]: the EC50 in assay [1] was 703 nM; in assay [2], 0.3 nM; in assay [3], 845 nM.
Regarding `Cc1cc(-c2nc(CSc3nc(N)c(C#N)c(-c4ccc(OCCO)cc4)c3C#N)co2)ccc1F` [Example 31], the EC50 in assay [1] worked out at 467 nM; in assay [2], 0.9 nM; in assay [3], 315 nM.
For `N#Cc1c(N)nc(SCc2coc(-c3ccc(Cl)cc3)n2)c(C#N)c1-c1ccc(OC[C@@H](O)CO)cc1` [Example 48, 2-Amino-6-({[2-(4-chlorophenyl)-1,3-oxazol-4-yl]methyl}sulfanyl)-4-(4-{[(2S)-2,3-dihydroxypropyl]oxy}phenyl)pyridine-3,5-dicarbonitrile] the same measures were 138 nM, 0.3 nM and 4.4 nM.
For `N#Cc1c(N)nc(SCc2coc(-c3ccc(Cl)cc3)n2)c(C#N)c1-c1ccc(OC[C@H](O)CO)cc1` [Example 49, 2-Amino-6-({[2-(4-chlorophenyl)-1,3-oxazol-4-yl]methyl}sulfanyl)-4-(4-{[(2R)-2,3-dihydroxypropyl]oxy}phenyl)pyridine-3,5-dicarbonitrile], the EC50 in assay [1] was found to be 300 nM; in assay [2] it was 0.4 nM; in assay [3], 100 nM.
In the case of `Cc1oc(-c2ccc(F)cc2)nc1CSc1nc(N)c(C#N)c(-c2ccc(OC[C@@H](O)CO)cc2)c1C#N` [Example 50], the values for the EC50 in assay [2] and in assay [3] were 0.4 nM and 118 nM, respectively.
As for `COC(=O)c1ccc(-c2nc(CSc3nc(N)c(C#N)c(-c4ccc(OC[C@@H](O)CO)cc4)c3C#N)c(C)o2)cc1` [Example 57], the EC50 came out at 525 nM in assay [1], 0.2 nM in assay [2] and 44 nM in assay [3].
For `Cc1oc(-c2ccc(Cl)cc2)nc1CSc1nc(N)c(C#N)c(-c2ccc(OC[C@@H](O)CO)cc2)c1C#N` [Example 60], the EC50 in assay [2] came to 0.3 nM; in assay [3], 236 nM.
In the case of `Cc1oc(-c2ccccc2F)nc1CSc1nc(N)c(C#N)c(-c2ccc(OC[C@@H](O)CO)cc2)c1C#N` [Example 61], the EC50 is 439 nM in assay [1], 0.7 nM in assay [2] and 221 nM in assay [3].
Consider `COc1ccc(-c2nc(CSc3nc(N)c(C#N)c(-c4ccc(OC[C@H](O)CO)cc4)c3C#N)c(C)o2)cc1` [Example 66], for which the EC50 amounted to 575 nM in assay [1], 0.9 nM in assay [2] and 370 nM in assay [3].
For `Cc1cc(-c2nc(CSc3nc(N)c(C#N)c(-c4ccc(OC[C@H](O)CO)cc4)c3C#N)co2)ccc1Cl` [Example 80], the half-maximal effective concentration (EC50) was determined as 461 nM in assay [1], 0.8 nM in assay [2] and 89 nM in assay [3].
In the same order, the values of `N#Cc1c(N)nc(SCc2coc(-c3ccc(F)cc3)n2)c(C#N)c1-c1ccc(OC[C@@H](O)CO)cc1` [Example 81] are 64 nM, 0.3 nM and 20 nM.
For `N#Cc1c(N)nc(SCc2ncoc2-c2ccc(Cl)cc2)c(C#N)c1-c1ccc(OC[C@@H](O)CO)cc1` [Example 93], the values for the EC50 in assay [1], in assay [2] and in assay [3] were 522 nM, 8.9 nM and 336 nM, respectively.
In assay [2], `Cc1oc(-c2ccc(C(=O)O)cc2)nc1CSc1nc(N)c(C#N)c(-c2ccc(OCC(C)(C)O)cc2)c1C#N` [Example 95, 4-{4-[({6-Amino-3,5-dicyano-4-[4-(2-hydroxy-2-methylpropoxy)phenyl]pyridin-2-yl}thio)methyl]-5-methyl-1,3-oxazol-2-yl}benzoic acid] came in with an EC50 of 0.5 nM.
On to `N#Cc1c(N)nc(SCc2coc(-c3ccc(F)cc3)n2)c(C#N)c1-c1ccc(OC[C@H](O)CO)cc1` [Example 101], for which the EC50 came out at 72 nM in assay [1], 0.4 nM in assay [2] and 226 nM in assay [3].
On to `C[C@H](O)COc1ccc(-c2c(C#N)c(N)nc(SCc3coc(-c4ccc(Cl)cc4)n3)c2C#N)cc1` [Example 106], for which the EC50 in assay [1] amounted to 318 nM; in assay [2], 0.3 nM; in assay [3], 48 nM.
As to `N#Cc1c(N)nc(OCc2coc(-c3ccc(Cl)cc3)n2)c(C#N)c1-c1ccc(OCCO)cc1` [Example 110, 2-Amino-6-{[2-(4-chlorophenyl)-1,3-oxazol-4-yl]methoxy}-4-[4-(2-hydroxyethoxy)phenyl]pyridine-3,5-dicarbonitrile], the EC50 is 497 nM in assay [1], 0.3 nM in assay [2] and 95 nM in assay [3].
`N#Cc1c(N)nc(OCc2coc(-c3ccc(F)c(F)c3)n2)c(C#N)c1-c1ccc(OCCO)cc1` [Example 114]: the EC50 was 1970 nM in assay [1], 0.2 nM in assay [2] and 969 nM in assay [3].
As to `N#Cc1c(SCc2coc(-c3ccc(Cl)cc3)n2)nc(N2CCCC2)c(C#N)c1-c1ccc(OCCO)cc1` [Example 116, 2-({[2-(4-Chlorophenyl)-1,3-oxazol-4-yl]methyl}sulfanyl)-4-[4-(2-hydroxyethoxy)phenyl]-6-(pyrrolidin-1-yl)pyridine-3,5-dicarbonitrile], the EC50 in assay [2] came to 0.4 nM; in assay [3], 698 nM.
As for `N#Cc1c(NCCO)nc(SCc2coc(-c3ccc(Cl)cc3)n2)c(C#N)c1-c1ccc(OCCO)cc1` [Example 117], the EC50 in assay [1] is 1440 nM; in assay [2], 0.2 nM; in assay [3], 1090 nM.
Turning to `N#Cc1c(NC[C@@H](O)CO)nc(SCc2coc(-c3ccc(Cl)cc3)n2)c(C#N)c1-c1ccc(OCCO)cc1` [Example 119], the EC50 in assay [1] turned out to be 1950 nM; in assay [2], 0.3 nM.
As to `N#Cc1c(NCCO)nc(SCc2coc(-c3ccc(Cl)cc3)n2)c(C#N)c1-c1ccc(OCCO)c(F)c1` [Example 122, 2-({[2-(4-Chlorophenyl)-1,3-oxazol-4-yl]methyl}sulfanyl)-4-[3-fluoro-4-(2-hydroxyethoxy)phenyl]-6-[(2-hydroxyethyl)amino]pyridine-3,5-dicarbonitrile], the EC50 in assay [2] was 4.1 nM; in assay [3], 2250 nM.
For the compound `N#Cc1c(SCc2coc(-c3ccc(Cl)cc3)n2)nc(N2CCC2)c(C#N)c1-c1ccc(OCCO)cc1` [Example 126], the EC50 was 684 nM in assay [1], 0.5 nM in assay [2] and 78 nM in assay [3].
For `N#Cc1c(SCc2coc(-c3ccc(Cl)cc3)n2)nc(N2CC[C@@H](O)C2)c(C#N)c1-c1ccc(OCCO)cc1` [Example 127] the same measures were 984 nM, 0.4 nM and 283 nM.
Consider `N#Cc1c(NCCO)nc(OCc2coc(-c3ccc(Cl)cc3)n2)c(C#N)c1-c1ccc(OCCO)cc1` [Example 129], for which the EC50 in assay [2] was 0.4 nM.
Consider `N#Cc1c(OCc2coc(-c3ccc(Cl)cc3)n2)nc(N2CC(O)C2)c(C#N)c1-c1ccc(OCCO)cc1` [Example 130], for which the results for the EC50 in assay [2] and in assay [3] were 0.6 nM and 245 nM, respectively.
